Patent US11414454B2, “Compositions, methods, and systems for affinity-based protein identification and purification” (Auctus Biologies, Inc., priority 2017, dated 2022)
No end group written: not given here.

Experiments:
RPtag (large) [1] = test: Association/dissociation kinetics of RPtag (small) peptides with RPtag (large) by fluorescence anisotropy; assay type: binding, Thermoanaerobacter tengcongensis; details: for koff: LS dissociation, unlabeled competitor peptide
Summary of the method: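 Rhodamine-labeled RPtag small incubated with unlabeled RPtag large; binding followed by fluorescence anisotropy and converted to complex concentration. For dissociation, 1000 nM RPtag large complex chased with 0.1 mM unlabeled native or Nd2,P5A,E18A peptide; koff from initial rates or single-exponential fits, kon derived from koff and Kd.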

RPtag (large) [2] = test: Buffer additive screen, Kd by fluorescence anisotropy; assay type: binding, Thermoanaerobacter tengcongensis
Protocol: To determine reagent compatibility with the disclosed system, an additive screen was performed, wherein the Kd between RPtag (large) and 3 RPtag (small) peptides—native, Nd8Cd4, and Nd2p5ae18a—were tested in the presence of several common buffer additives (Table 3).

RPtag(large) = test: pH profile of Kd by fluorescence anisotropy; assay type: binding, Thermoanaerobacter tengcongensis; details: buffers pH 1.5 to 13
Protocol: The Kds of Nd8,Cd4 for RPtag(large) was measured in the presence of buffers of different pHs ranging from 1.5 to 13.
For these experiments, Kds were measured by fluorescence anisotropy as described above in the following buffers, all at 100 mM with 0.005% Tween 20: glycine pH 1.5, glycine pH 2.0, glycine pH 3.0, acetate pH 4.5, 2-(N-morpholino)ethanesulfonic acid pH 6.0, tris pH 7.0, tris pH 7.5, tris pH 8.0, tris pH 8.5, borate pH 10.0, phosphate pH 11.5, phosphate pH 13.0.

[3] = test system: immobilized RPtag(large) column; test: Native elution from immobilized RPtag(large) column (3 M NaCl binding, 3 M imidazole elution); design: species or system Thermoanaerobacter tengcongensis; details: bound in 100 mM Tris pH 8.0, 3 M NaCl, 0.005% Tween20
From the text: Because of the observed stabilizing character of NaCl and destabilizing character of imidazole on Nd8Cd4 binding, these reagents, among others, were incorporated into a novel buffering system for use with the disclosed proteins, peptides, systems, and methods. In particular, the effect of this novel buffer on binding of RPtag (small) Nd8Cd4 to an immobilized RPtag(large) column was studied. These experiments included eluting both (1) rhodamine labeled peptide and (2) N-terminally RPtag(small) Nd8Cd4 tagged with tagRFP from a column under native conditions. Generally, native conditions is taken to mean at or near biological conditions under which many proteins are folded, e.g. pH 4-9 at moderate temperature (4° C.-30° C.) in the absence of denaturants (e.g. guanidine hydrochloride, urea, SDS). This is in contrast to denaturing conditions, which generally rely on extreme pH (e.g. ≤2) denaturants, or high temperature to unfold proteins.
Briefly, columns, as described above, were first equilibrated with 10 mL 100 mM Tris pH 8.0, 3 M NaCl, 0.005% Tween20. Next, 1 mL of 10 uM rhodamine-tagged Nd8Cd4 or tagRFP containing an N-terminal RPtag (small) Nd8Cd4 tag was applied in the same buffer. The column was then washed with 10 mL of the same buffer. Finally, bound target molecules were eluted with 10 mL of 100 mM Tris pH 8.0, 3 M imidazole, 0.005% Tween20.

[4] = 100 mM Tris pH 8.0, 0.005% Tween 20, No Additive

Sequence | koff (RPtag (large) [1]) [s⁻¹] | Kd (RPtag (large) [2]; [4]) [nM] | Kd (RPtag (large) [2]; BME (10%)) [nM] | Kd (RPtag (large) [2]; CaCl2 (3M)) [nM] | Kd (RPtag (large) [2]; DMSO (20%)) [nM] | Kd (RPtag (large) [2]; DTT (100 mM)) [nM] | Kd (RPtag (large) [2]; EtOH (20%)) [nM] | Kd (RPtag (large) [2]; Gdn-HCl (6M)) [nM] | Kd (RPtag (large) [2]; KCl (3M)) [nM] | Kd (RPtag (large) [2]; MeOH (20%)) [nM] | Kd (RPtag (large) [2]; MgCl2 (3M)) [nM] | Kd (RPtag (large) [2]; MnSO4 (10 mM)) [nM] | Kd (RPtag (large) [2]; NH4SO4 (3M)) [nM] | Kd (RPtag (large) [2]; NaCl (3M)) [nM] | Kd (RPtag (large) [2]; NiCl2 (100 mM)) [nM] | Kd (RPtag (large) [2]; PG (50%)) [nM] | Kd (RPtag (large) [2]; SDS (2%)) [nM] | Kd (RPtag (large) [2]; TritonX-100 (2%)) [nM] | Kd (RPtag (large) [2]; Tween20 (2%)) [nM] | Kd (RPtag (large) [2]; acetone (20%)) [nM] | other results
KIANFIPAELKLITKANVQ [Nd2, p5a, e18a, KIANFIPAELKLITKANVQ] | 0.000217 ± 1.7e-05 | 0.037 | 6.7 | 150 | 0.023 | 0.073 | 0.1 | > 10000 | 0.011 | 0.056 | 350 | 22 | 44 | < 0.001 | 2.2 | 49 | > 10000 | 0.046 | 4.7 | 0.019 | kf (RPtag (large) [1]; S to S* forward rate constant): 0.051 ± 0.001 min⁻¹; kr (RPtag (large) [1]; S* to S reverse rate constant, calculated from Keq and kf): 0.19 ± 0.02 min⁻¹; kon (M^−1 min^−1 ) (×10^7) (RPtag (large) [1]; S*-LS transition, calculated from measured koff and Kd): 28 ± 2 ×10^7 M^−1 min^−1; Kd (RPtag (large) [2]; glycerol (20%)): < 0.001 nM; Kd (RPtag (large) [2]; imidazole (3M)): > 10000 nM; Kd (RPtag (large) [2]; ribose (3M)): < 0.001 nM; Kd (RPtag (large) [2]; sorbitol (3M)): < 0.001 nM; Kd (RPtag (large) [2]; urea (8M)): > 10000 nM; pH of relative maximum affinity (RPtag(large)): ~8 pH; elution behaviour with 100 mM Tris pH 8.0, 3 M imidazole [3]: diffuse band
PAELKLITK [Nd8, Cd4, PAELKLITK] | >0.033 | 14 | 740 | > 10000 | 140 | 33 | 733 | > 10000 | 0.066 | 34 | 240 | 160 | 2.8 | 0.15 | 42 | 4600 | > 10000 | 180 | 45 | 22 | binding/unbinding kinetics (RPtag (large) [1]; instrument dead time ~1 min): completed within the dead time; increased affinity with kosmotropic salts NaCl and KCl (RPtag (large) [2]; 3M salt versus no additive): > 100 fold; Kd (RPtag (large) [2]; glycerol (20%)): 27 nM; Kd (RPtag (large) [2]; imidazole (3M)): > 10000 nM; Kd (RPtag (large) [2]; ribose (3M)): 42 nM; Kd (RPtag (large) [2]; sorbitol (3M)): 16 nM; Kd (RPtag (large) [2]; urea (8M)): > 10000 nM; pH of relative maximum affinity (RPtag(large)): ~8 pH; elution behaviour with 100 mM Tris pH 8.0, 3 M imidazole [3]: eluted as a tight band
